Assay results reported in ChEMBL document CHEMBL2331138, “Isolation and structures of axistatins 1-3 from the Republic of Palau marine sponge Agelas axifera Hentschel ” (2013).
Values after ≈ are worked out from the molar mass of the structure shown. Active and inactive are the calls of the source. The rule behind the calls is not given here.

Columns and labels:
Escherichia coli [1] = test: Antimicrobial activity against Escherichia coli ATCC 25922 assessed as growth inhibition at 64 ug/mL by NCCLS broth microdilution assay; type: functional, organism-based
DU-145 = test: Growth inhibition of human DU145 cells after 48 hrs by SRB assay; type: functional; conditions: DU-145, 48 h
Staphylococcus aureus [2] = test: Antimicrobial activity against Staphylococcus aureus ATCC 29213 assessed as growth inhibition at 64 ug/mL by NCCLS broth microdilution assay; type: functional, organism-based
SF-268 = test: Growth inhibition of human SF268 cells after 48 hrs by SRB assay; type: functional; conditions: SF-268, 48 h
Enterococcus faecalis [3] = test: Antimicrobial activity against Enterococcus faecalis ATCC 29212 assessed as growth inhibition at 64 ug/mL by NCCLS broth microdilution assay; type: functional, organism-based
MCF7 = test: Growth inhibition of human MCF7 cells after 48 hrs by SRB assay; type: functional; conditions: MCF7, 48 h
KM-20L2 = test: Growth inhibition of human KM20L2 cells after 48 hrs by SRB assay; type: functional; conditions: KM-20L2, 48 h
Micrococcus luteus [4] = test: Antimicrobial activity against Micrococcus luteus Presque Isle 456 assessed as growth inhibition at 64 ug/mL by NCCLS broth microdilution assay; type: functional, organism-based
Candida albicans [5] = test: Antimicrobial activity against Candida albicans ATCC 90028 assessed as growth inhibition at 64 ug/mL by NCCLS broth microdilution assay; type: functional, organism-based
Cryptococcus neoformans [6] = test: Antimicrobial activity against Cryptococcus neoformans ATCC 90112 assessed as growth inhibition at 64 ug/mL by NCCLS broth microdilution assay; type: functional, organism-based
Neisseria gonorrhoeae [7] = test: Antimicrobial activity against Neisseria gonorrhoeae ATCC 49226 assessed as growth inhibition at 64 ug/mL by NCCLS broth microdilution assay; type: functional, organism-based
NCI-H460 = test: Growth inhibition of human NCI-H460 cells after 48 hrs by SRB assay; type: functional; conditions: NCI-H460, 48 h
[8] = test system: Stenotrophomonas maltophilia; test: Antimicrobial activity against Stenotrophomonas maltophilia ATCC 13637 assessed as growth inhibition at 64 ug/mL by NCCLS broth microdilution assay; type: functional, organism-based
Streptococcus pneumoniae [9] = test: Antimicrobial activity against Streptococcus pneumoniae ATCC 6303 assessed as growth inhibition at 64 ug/mL by NCCLS broth microdilution assay; type: functional, organism-based
BXPC-3 = test: Growth inhibition of human BxPC3 cells after 48 hrs by SRB assay; type: functional; conditions: BXPC-3, 48 h
P388 = test: Growth inhibition of mouse P388 cells after 48 hrs by Z1 Coulter particle counting; type: functional; conditions: P388, 48 h, read-out: ED50 (the source's name)
Enterobacter cloacae [10] = test: Antimicrobial activity against Enterobacter cloacae ATCC 13047 assessed as growth inhibition at 64 ug/mL by NCCLS broth microdilution assay; type: functional, organism-based
Streptococcus pneumoniae [11] = test: Antimicrobial activity against Streptococcus pneumoniae ATCC 6303 by NCCLS broth microdilution assay; type: functional
Staphylococcus aureus [12] = test: Antimicrobial activity against Staphylococcus aureus ATCC 29213 by NCCLS broth microdilution assay; type: functional
Enterococcus faecalis [13] = test: Antimicrobial activity against Enterococcus faecalis ATCC 29212 by NCCLS broth microdilution assay; type: functional
Neisseria gonorrhoeae [14] = test: Antimicrobial activity against Neisseria gonorrhoeae ATCC 49226 by NCCLS broth microdilution assay; type: functional
Micrococcus luteus [15] = test: Antimicrobial activity against Micrococcus luteus Presque Isle 456 by NCCLS broth microdilution assay; type: functional
Enterobacter cloacae [16] = test: Antimicrobial activity against Enterobacter cloacae ATCC 13047 by NCCLS broth microdilution assay; type: functional
[17] = test system: Stenotrophomonas maltophilia; test: Antimicrobial activity against Stenotrophomonas maltophilia ATCC 13637 by NCCLS broth microdilution assay; type: functional
Candida albicans [18] = test: Antimicrobial activity against Candida albicans ATCC 90028 by NCCLS broth microdilution assay; type: functional
Escherichia coli [19] = test: Antimicrobial activity against Escherichia coli ATCC 25922 by NCCLS broth microdilution assay; type: functional
Cryptococcus neoformans [20] = test: Antimicrobial activity against Cryptococcus neoformans ATCC 90112 by NCCLS broth microdilution assay; type: functional

Row | Compound | growth inhibition (GI) (Escherichia coli [1]) | GI50 (DU-145) | GI50 (SF-268) | GI50 (MCF7) | GI50 (KM-20L2) | growth inhibition (GI) (Candida albicans [5]) | growth inhibition (GI) (Cryptococcus neoformans [6]) | GI50 (NCI-H460) | growth inhibition (GI) [8] | GI50 (BXPC-3) | EC50 (P388) | growth inhibition (GI) (Enterobacter cloacae [10]) | MIC (Streptococcus pneumoniae [11]) | MIC (Staphylococcus aureus [12]) | MIC (Enterococcus faecalis [13]) | MIC (Neisseria gonorrhoeae [14]) | MIC (Micrococcus luteus [15]) | MIC (Cryptococcus neoformans [20]) | further results
1 | CNc1ncnc(N)c1N(C=O)C/C=C(\C)CC[C@]1(C)[C@@H](C)CC[C@@]2(C)C(COC(=O)c3ccc[nH]3)=CCC[C@@H]12 | inactive | 4.6 µM | 3.1 µM | 3.1 µM | 2.9 µM | inactive | inactive | 3.6 µM | inactive | 4 µM | > 18.2 µM | inactive |  |  |  |  |  |  | growth inhibition (GI) (Staphylococcus aureus [2]): inactive; growth inhibition (GI) (Enterococcus faecalis [3]): inactive; growth inhibition (GI) (Micrococcus luteus [4]): inactive; growth inhibition (GI) (Neisseria gonorrhoeae [7]): inactive; growth inhibition (GI) (Streptococcus pneumoniae [9]): inactive
2 | CNc1ncnc(N)c1N(C=O)C/C=C(\C)CC/C=C(\C)CC[C@@]1(C)C(C)=CCC[C@@H]1C | inactive | 6.8 µM | 3.9 µM | 5.9 µM | 7.1 µM | inactive | inactive | 6.8 µM | inactive | 5.9 µM | 15.7 µM | inactive | 32 µg/mL (≈ 72.8 µM) | 8 µg/mL (≈ 18.2 µM) | 8 µg/mL (≈ 18.2 µM) | 16 µg/mL (≈ 36.4 µM) | 4 µg/mL (≈ 9.1 µM) |  | 
3 | CC1=CCC[C@H](C)[C@@]1(C)CC/C(C)=C/CC/C(C)=C/Cn1c[n+](C)c2ncnc(N)c21.[Cl-] [AGELINE A] |  | 4.2 µM | 3.5 µM | 3.9 µM | 3.5 µM |  |  | 3.7 µM |  | 3.5 µM | > 21.8 µM |  | 16 µg/mL | 2 µg/mL | 2 µg/mL | 2 µg/mL | < 0.5 µg/mL | 2 µg/mL | MIC (Enterobacter cloacae [16]): 32 µg/mL; MIC [17]: 16 µg/mL; MIC (Candida albicans [18]): 4 µg/mL; MIC (Escherichia coli [19]): 32 µg/mL
4 | CNc1ncnc(N)c1N(C=O)C/C=C(\C)CC[C@]1(C)[C@@H](C)CC[C@@]2(C)C(C)=CCC[C@@H]12 [AXISTATIN 1] | inactive | 4.8 µM | 3.6 µM | 5.7 µM | 4.1 µM | inactive |  | 4.6 µM | inactive | 4.8 µM | 19.8 µM | inactive | 8 µg/mL (≈ 18.2 µM) | 1 µg/mL (≈ 2.27 µM) | 1 µg/mL (≈ 2.27 µM) | 1 µg/mL (≈ 2.27 µM) | 1 µg/mL (≈ 2.27 µM) | 1 µg/mL (≈ 2.27 µM) | 
5 | CNc1ncnc(N)c1N(C=O)C/C=C(\C)CC[C@@]1(C)[C@H](C)CC[C@@]2(C)C(C)=CCC[C@H]12 [AXISTATIN 2] | inactive | 5 µM | 3.9 µM | 6.8 µM | 4.1 µM | inactive |  | 4.3 µM | inactive | 5.5 µM | > 22.8 µM | inactive | 8 µg/mL (≈ 18.2 µM) | 1 µg/mL (≈ 2.27 µM) | 1 µg/mL (≈ 2.27 µM) | 2 µg/mL (≈ 4.55 µM) | 1 µg/mL (≈ 2.27 µM) | 2 µg/mL (≈ 4.55 µM) | 
6 | CNc1ncnc(NC(C)C)c1N(C=O)C/C=C(\C)CC/C=C(\C)CC[C@@]1(C)C(C)=CCC[C@@H]1C [AXISTATIN 3] | inactive | 7.5 µM | 3.5 µM | 5.8 µM | 6.9 µM | inactive |  | 5.4 µM | inactive | 6 µM | 8.9 µM | inactive | 32 µg/mL (≈ 66.4 µM) | 4 µg/mL (≈ 8.3 µM) | 8 µg/mL (≈ 16.6 µM) | 8 µg/mL (≈ 16.6 µM) | 8 µg/mL (≈ 16.6 µM) | 8 µg/mL (≈ 16.6 µM) | 
